Assay results taken from patent US20050214738A1, “Conditional allele system” (priority 2003, published 2005).

Columns and labels:
FRB*Pax6 = target: T1, FRB*Pax6 (UniProt P26883+P42345, K2095P/T2098L/W2101F); experiment: Whole embryo culture, inducible stabilization of FRB*Pax6; parameters: species or system mouse
T1 construct: The minimal FRB domain comprises amino acids 2025-2114 of human mTor; from tissue; host or cells: e13.5 cortical neural cultures (A14) and cultured whole embryos (A15) from Pax6^FRB* knock-in mice; fusion expressed from the targeted endogenous locus
Description: Uterine horns were removed from sacrificed mothers to a petri dish containing Hank's Balanced Salt Solution (HBSS), fat was removed and the uterus cut up to isolate embryos. Individual deciduum were carefully removed from the uterus by carefully pulling apart the muscular layers in a fresh petri dish containing HBSS (sometimes supplemented with 2 mg/mL glucose) under a dissecting microscope. Embryos were removed by cutting along the lateral axis of the deciduum with fine forceps taking care not to puncture the embryonic membranes and teasing off the decidual layers overlying the embryo. Embryos were then separated from the remaining decidua at the ectoplacental cone or primitive placenta (depending on the age of the embryo).
Reichert's membrane was grasped without the underlying visceral yolk sac, carefully torn away from the embryo and trimmed back to the placenta without ripping the yolk sac. […] The bottle rotated slowly in a roller bottle chamber at 37° C. Drugs were added directly to the culture media at the commencement of the culture.
Embryos were fixed overnight in 4% paraformaldehyde/PBS then dehydrated through a staged ethanol series. Endogenous peroxidases were inactivated with 5% H2O2 for 4 hours in ethanol and the embryos were rehydrated. […] Embryos were washed in block 6 hours with 1 hour changes and incubated overnight at 4° C. with […] anti-mouse secondary. Embryos were washed with PBS+0.1% Triton X-100 4 times for 1 hour and developed with the DAB peroxidase kit from Vector laboratories.
Embryos were protected with a staged series to 30% sucrose in PBS after fixation in 4% PFA (60 minutes to overnight at 4° C.). Protected embryos were embedded in OCT (VWR) frozen and sectioned on a Leica cryostat to 10 μm. Thin sections were stained according to standard protocols (obtained upon request). Secondary antibodies were purchased from Molecular Probes (Eugene, Oreg.) and primary antibodies to neurofilament, Lim3, Nkx2.2, Pax6, En1, Isl1 were obtained from Dev. Studies. Additional antibodies were from Covance, Zymed or a generous gift of Tadashi Nomura and Noriko Osumi (Sendai, Japan). Immunofluorescence was visualized by confocal microscopy.

GSK-3βFRB* = GSK-3βFRB* (UniProt P26883+P42345, K2095P/T2098L/W2101F); experiment: Stabilization of GSK-3βFRB* in embryos of injected pregnant mice; format: in vivo, mouse; parameters: The minimal FRB domain comprises amino acids 2025-2114 of human mTor; endogenous in cells; host or cells: MEFs from GSK-3β^FRB* knock-in mice (fusion expressed from the targeted endogenous locus); details: 200 mg/kg/day IP to mother, embryos harvested at E11.5
Description: GSK-3β^+/FRB* mice were intercrossed and the date of vaginal plug observation was set as E0.5. At E9.5, the stage of embryonic development was confirmed by ultrasonography (Chang, C. P. et al. “Sonographic Staging of the Developmental Status of Mouse Embryos in Utero.” (2003) Published in Genesis 36, 7-11) and mice were weighed. Drug administration commenced at E10.0. C20-MaRap was dissolved as a stock in N,N-dimethylacetamide (DMA) and was diluted into a delivery vehicle containing 10% Polyethylene glycol 400, 17% Polyoxyethylene sorbitan monooleate and 10% DMA to a final concentration of […]. 100 μL was immediately injected intraperitoneally (IP) to pregnant females with injections repeated twice more at 12 hour intervals to E11.5 when mice were sacrificed, and embryos and organs were dissected and frozen in […]. Tissues anterior to the embryonic forelimbs of individual embryos were used for preparation of protein extracts with the remainder used to determine the concentration of drug and for genotyping.

KTF = target: T2, KTF (Homo sapiens, UniProt P42345+P62942, W2101F); experiment: SeAP transcriptional switch assay, FRB mutant KTF; format: cell-based
T2 construct: The minimal FRB domain comprises amino acids 2025-2114 of human mTor; expressed in transfected cells; host or cells: COS1 cells
Description: Drug efficacy was determined in a three-plasmid transcriptional switch reporter assay. ˜106 COS1 cells were coelectroporated with 2 μg of the DNA binding construct pBJ5-Gal4-FKBP(3), 2 μg pBJ5-VP16 (or the relevant mutant FRB) and 2 μg of the Gal4-SeAP reporter. Electroporation details are available upon request. Cells were immediately aliquoted to 2 or 3×96 well plates with flat bottoms. After 24 hours incubation media was supplemented with a rapalog in triplicate and in serial two fold dilutions. Following 24 hours further incubation, cells with media were wrapped carefully in plastic wrap and heated to 65° C. for two hours to inactivate endogenous phosphatases. 50 μL of media was transferred to a black 96 well plate (Costar 3915) and supplemented with 1 mM methylumbelliferrylphosphate (Sigma, St. Louis, Mo.) in 1M diethanolamine (pH 10.0 with carbonate). After 16 hours incubation at 37° C. SeAP activity was measured by fluorescence with a Spectamax M2 fluorometer (Molecular Devices, Sunnyvale, Calif.) with transmission set at 355 nm and emmission set at 460 nm. Data was analysed with Softmax Pro (Molecular Devices), Microsoft Excel and Prism 3 (GraphPad Software).

T1 sequence (P42345 2025-2114 K2095P/T2098L/W2101F): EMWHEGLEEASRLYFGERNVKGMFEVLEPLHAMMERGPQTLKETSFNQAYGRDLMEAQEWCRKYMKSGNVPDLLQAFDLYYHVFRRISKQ
T1 sequence (P26883 2-108): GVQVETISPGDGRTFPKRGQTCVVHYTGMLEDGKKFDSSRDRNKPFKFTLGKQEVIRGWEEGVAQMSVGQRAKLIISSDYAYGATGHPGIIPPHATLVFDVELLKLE
T2 sequence (P42345 2025-2114 W2101F): as the sequence (P42345 2025-2114 K2095P/T2098L/W2101F) above, with P71K, L74T counted along it
T2 sequence (P62942 whole entry, the tested form may be a part): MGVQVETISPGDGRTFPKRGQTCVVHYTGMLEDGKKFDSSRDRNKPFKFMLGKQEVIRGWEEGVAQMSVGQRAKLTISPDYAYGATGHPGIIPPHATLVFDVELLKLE
Sequence of GSK-3βFRB* (P42345 2025-2114 K2095P/T2098L/W2101F): as the sequence (P42345 2025-2114 K2095P/T2098L/W2101F) above
Sequence of GSK-3βFRB* (P26883 2-108): as the sequence (P26883 2-108) above

## C20-(R or S)-methallylrapamycin [C20-MaRap]
FRB*Pax6; 48 hours from e9.5 to e11.5
  Lim3 phenotype of caudal hindbrain: could be rescued
  hypoglossal nerve, whole mount neurofilament staining: fasciculated hypoglossal nerve erupts
FRB*Pax6; Pax6FRB*/FRB* embryos, data not shown
  expression of FRB*Pax6 protein in the spinal cord: rescued
FRB*Pax6; e8.5 embryos cultured 48 hours, 2 μM
  En1 expressing cells in the V1 domain of spinal cord: rescued the development of En1 expressing cells
FRB*Pax6; e9.5 to e11.5, 2 μM
  cells expressing Lim3 in spinal cord: expansion of cells expressing Lim3
FRB*Pax6; embryo cultures
  effect on wild-type embryos: no obvious effect
GSK-3βFRB*
  GSK-3βFRB* protein levels in embryos: partially restored
KTF
  binding to KTF: binds efficiently
KTF; single mutation Trp2101 to Phe
  EC50: 9 nM
